# Values quoted from earlier work, collected in patent US8445528B2, “Dendrimer conjugates” (priority 2008, dated 2013).
# Settings: more cytotoxic than IRINOTECAN
smiles,measurement,value
"CC[C@@]1(O)C(=O)OCc2c1cc1n(c2=O)Cc2cc3cc(O)ccc3nc2-1 [SN-38, 10-hydroxycamptothecin]",cytotoxicity relative to IRINOTECAN,1000 fold
